Drawing on patent US12441703B2, “Carboxamides as modulators of sodium channels” (VERTEX PHARMACEUTICALS INCORPORATED, priority 2019, dated 2025), this text covers IC50 for 29 compounds.

human NaV 1.8, sequence (Q9Y5Y9 whole entry, looked up, the tested form may be a part): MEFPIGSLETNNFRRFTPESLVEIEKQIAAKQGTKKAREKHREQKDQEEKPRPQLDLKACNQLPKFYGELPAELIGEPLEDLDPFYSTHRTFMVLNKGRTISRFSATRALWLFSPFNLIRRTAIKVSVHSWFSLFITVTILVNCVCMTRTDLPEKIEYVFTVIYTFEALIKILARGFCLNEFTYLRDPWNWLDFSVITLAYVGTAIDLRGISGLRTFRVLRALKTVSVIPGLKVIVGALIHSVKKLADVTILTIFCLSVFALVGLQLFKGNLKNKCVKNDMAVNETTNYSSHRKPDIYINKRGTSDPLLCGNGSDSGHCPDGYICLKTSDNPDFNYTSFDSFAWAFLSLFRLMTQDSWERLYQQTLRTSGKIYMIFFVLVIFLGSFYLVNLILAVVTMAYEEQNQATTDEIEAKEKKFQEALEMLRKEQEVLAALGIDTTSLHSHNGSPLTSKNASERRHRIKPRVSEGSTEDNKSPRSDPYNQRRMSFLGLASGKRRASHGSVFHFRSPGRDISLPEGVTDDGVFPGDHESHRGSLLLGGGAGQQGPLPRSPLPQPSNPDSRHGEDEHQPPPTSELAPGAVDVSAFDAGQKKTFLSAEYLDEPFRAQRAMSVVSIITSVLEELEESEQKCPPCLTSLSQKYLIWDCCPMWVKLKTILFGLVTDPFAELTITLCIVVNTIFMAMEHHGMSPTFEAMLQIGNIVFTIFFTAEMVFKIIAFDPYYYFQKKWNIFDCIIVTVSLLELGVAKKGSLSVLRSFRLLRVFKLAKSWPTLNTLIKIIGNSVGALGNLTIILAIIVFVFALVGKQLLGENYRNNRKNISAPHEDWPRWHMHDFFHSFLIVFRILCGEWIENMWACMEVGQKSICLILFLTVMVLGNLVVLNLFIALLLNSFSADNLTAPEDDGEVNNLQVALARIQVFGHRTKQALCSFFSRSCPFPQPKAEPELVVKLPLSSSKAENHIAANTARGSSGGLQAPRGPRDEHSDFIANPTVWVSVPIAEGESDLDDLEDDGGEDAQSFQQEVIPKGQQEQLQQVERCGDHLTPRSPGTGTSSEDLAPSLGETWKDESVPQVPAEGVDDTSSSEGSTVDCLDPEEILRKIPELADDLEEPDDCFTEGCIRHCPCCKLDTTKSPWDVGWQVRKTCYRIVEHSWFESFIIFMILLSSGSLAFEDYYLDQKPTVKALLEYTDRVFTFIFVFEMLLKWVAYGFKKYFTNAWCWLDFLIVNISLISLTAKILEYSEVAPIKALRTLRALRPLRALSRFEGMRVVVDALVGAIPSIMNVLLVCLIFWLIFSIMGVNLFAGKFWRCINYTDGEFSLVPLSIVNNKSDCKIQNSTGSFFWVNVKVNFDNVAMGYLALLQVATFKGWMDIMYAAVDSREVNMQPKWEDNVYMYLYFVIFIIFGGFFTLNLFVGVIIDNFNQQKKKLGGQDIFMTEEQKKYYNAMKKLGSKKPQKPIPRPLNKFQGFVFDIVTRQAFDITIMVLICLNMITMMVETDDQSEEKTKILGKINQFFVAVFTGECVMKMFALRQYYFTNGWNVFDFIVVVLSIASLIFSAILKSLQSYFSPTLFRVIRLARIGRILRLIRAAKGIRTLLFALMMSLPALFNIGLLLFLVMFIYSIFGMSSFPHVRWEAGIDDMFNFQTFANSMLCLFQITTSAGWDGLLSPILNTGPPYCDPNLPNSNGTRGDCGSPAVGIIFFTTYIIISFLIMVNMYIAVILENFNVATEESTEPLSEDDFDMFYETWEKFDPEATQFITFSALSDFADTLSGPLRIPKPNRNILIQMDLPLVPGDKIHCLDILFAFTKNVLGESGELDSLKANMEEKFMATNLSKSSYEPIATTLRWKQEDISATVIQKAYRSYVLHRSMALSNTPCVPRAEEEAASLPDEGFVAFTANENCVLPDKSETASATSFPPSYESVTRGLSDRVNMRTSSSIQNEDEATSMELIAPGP

In the first test the target is human NaV 1.8 (Homo sapiens, UniProt Q9Y5Y9). In words: E-VIPR assay for detecting and measuring NaV inhibition properties. In kind it is cell-based. The conditions noted are these: E-VIPR assay conducted in the presence of human serum; HEK cells expressing truncated human NaV 1.8. The method, boiled down:
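HEK cells with truncated human NaV1.8 plus KIR2.1 BacMam, hexyl dye loaded 20 min, compound 30 min at room temperature, 11-point 3-fold series […], 0.625% DMSO, with or without human serum. E-VIPR biphasic stimulation at 10 Hz for 10 s; membrane-potential response read as normalized coumarin/oxonol ratio.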
For the compound `Cc1c(Oc2ccc(C(F)(F)F)c(C)c2C(=O)Nc2ccc(C(N)=O)nc2)ccc(OC(F)(F)F)c1F` [Compound 289, 5-[[6-[3-Fluoro-2-Methyl-4-(Trifluoromethoxy)Phenoxy]-2-Methyl-3-(Trifluoromethyl)Benzoyl]Amino]Pyridine-2-Carboxamide], the IC50 came to 0.039 µM.

Still in this test, the particulars now being: E-VIPR assay conducted in the presence of human serum; HEK cells expressing truncated human NaV 1.8; read-out: IC50.
As to `COc1cc(OC(F)(F)F)ccc1Oc1ccc(C(F)(F)F)c(C#N)c1C(=O)Nc1ccnc(C(N)=O)c1` [Compound 269, 4-[[2-cyano-6-[2-methoxy-4-(trifluoromethoxy)phenoxy]-3-(trifluoromethyl)benzoyl]amino]pyridine-2-carboxamide], the IC50 was found to be 0.037 µM.

As to `COc1cc(OC(F)(F)F)ccc1Oc1cnc(C(F)(F)F)c(C)c1C(=O)Nc1cnc(C(N)=O)nc1` [Compound 270, 5-[[5-[2-methoxy-4-(trifluoromethoxy)phenoxy]-3-methyl-2-(trifluoromethyl)pyridine-4-carbonyl]amino]pyrimidine-2-carboxamide], the IC50 is 0.033 µM.

For `COc1cc(OC(F)(F)F)ccc1Oc1cnc(C(F)(F)F)c(C)c1C(=O)Nc1cc(C(N)=O)ncc1C` [Compound 271, N-(2-carbamoyl-5-methyl-4-pyridyl)-5-[2-methoxy-4-(trifluoromethoxy)phenoxy]-3-methyl-2-(trifluoromethyl)pyridine-4-carboxamide], the IC50 was 0.024 µM.

In the case of `COc1cc(OC(F)(F)F)ccc1Oc1cc(C(F)(F)F)nc(OC)c1C(=O)Nc1cc(C(N)=O)ncc1C` [Compound 272, N-(2-carbamoyl-5-methyl-4-pyridyl)-2-methoxy-4-[2-methoxy-4-(trifluoromethoxy)phenoxy]-6-(trifluoromethyl)pyridine-3-carboxamide], the IC50 came out at 0.089 µM.

Consider `CNC(=O)c1cc(NC(=O)c2c(Oc3ccc(OC(F)(F)F)cc3OC)cnc(C(F)(F)F)c2OC)ccn1` [Compound 273, 3-methoxy-5-[2-methoxy-4-(trifluoromethoxy)phenoxy]-N-[2-(methylcarbamoyl)-4-pyridyl]-2-(trifluoromethyl)pyridine-4-carboxamide], for which the IC50 was determined as 0.059 µM.

Regarding `CCc1nc(C(=O)Nc2ccnc(C(N)=O)c2)c(Oc2ccc(OC(F)(F)F)cc2OC)cc1C(F)(F)F` [Compound 274, N-(2-carbamoyl-4-pyridyl)-6-ethyl-3-[2-methoxy-4-(trifluoromethoxy)phenoxy]-5-(trifluoromethyl)pyridine-2-carboxamide], the IC50 was 0.0393 µM.

As for `COc1cc(OC(F)(F)F)ccc1Oc1cc(C(F)(F)F)c(OC)nc1C(=O)Nc1ccnc(C(N)=O)c1` [Compound 275, N-(2-Carbamoyl-4-Pyridyl)-6-Methoxy-3-[2-Methoxy-4-(Trifluoromethoxy)Phenoxy]-5-(Trifluoromethyl)Pyridine-2-Carboxamide], the IC50 came out at 0.17 µM.

In the case of `COc1cc(OC(F)(F)F)ccc1Oc1cc(C(F)(F)F)c(OC)cc1C(=O)Nc1ccnc(C(N)=O)c1` [Compound 276, 4-[[5-Methoxy-2-[2-Methoxy-4-(Trifluoromethoxy)Phenoxy]-4-(Trifluoromethyl)Benzoyl]Amino]Pyridine-2-Carboxamide], the IC50 was determined as 0.44 µM.

Turning to `COc1cc(OC(F)(F)F)ccc1Oc1cc(C(F)(F)F)cc(OC)c1C(=O)Nc1ccnc(C(N)=O)c1` [Compound 277, 4-[[2-Methoxy-6-[2-Methoxy-4-(Trifluoromethoxy)Phenoxy]-4-(Trifluoromethyl)Benzoyl]Amino]Pyridine-2-Carboxamide], the half-inhibitory concentration (IC50) amounted to 0.17 µM.

In the case of `COc1cc(OC(F)(F)F)ccc1Oc1cc(C(F)(F)F)c(C)c(F)c1C(=O)Nc1ccnc(C(N)=O)c1` [Compound 278, 4-[[2-Fluoro-6-[2-Methoxy-4-(Trifluoromethoxy)Phenoxy]-3-Methyl-4-(Trifluoromethyl)Benzoyl]Amino]Pyridine-2-Carboxamide], the concentration for half-maximal inhibition (IC50) was found to be 0.0036 µM.

Regarding `COc1cc(OC(F)(F)F)ccc1Oc1cc(C(F)(F)F)c(F)cc1C(=O)Nc1cc[n+]([O-])c(C(N)=O)c1` [Compound 279, 4-[[5-Fluoro-2-[2-Methoxy-4-(Trifluoromethoxy)Phenoxy]-4-(Trifluoromethyl)Benzoyl]Amino]-1-Oxido-Pyridin-1-Ium-2-Carboxamide], the IC50 was determined as 0.019 µM.

Take `COc1cc(OC(F)(F)F)ccc1Oc1ccc(OC(F)(F)F)c(F)c1C(=O)Nc1ccnc(C(N)=O)c1` [Compound 280, 4-[[2-Fluoro-6-[2-Methoxy-4-(Trifluoromethoxy)Phenoxy]-3-(Trifluoromethoxy)Benzoyl]Amino]Pyridine-2-Carboxamide]: the IC50 is 0.004 µM.

Take `COc1cc(OC(F)(F)F)ccc1Oc1ccc(C(F)(F)F)c(C2CC2)c1C(=O)Nc1ccnc(C(N)=O)c1` [Compound 281, 4-[[2-Cyclopropyl-6-[2-Methoxy-4-(Trifluoromethoxy)Phenoxy]-3-(Trifluoromethyl)Benzoyl]Amino]Pyridine-2-Carboxamide]: the IC50 was determined as 0.13 µM.

`COc1cc(OC(F)(F)F)ccc1Oc1cc(C2CC2)c(C(F)(F)F)nc1C(=O)Nc1ccnc(C(N)=O)c1` [Compound 282, N-(2-Carbamoyl-4-Pyridyl)-5-Cyclopropyl-3-[2-Methoxy-4-(Trifluoromethoxy)Phenoxy]-6-(Trifluoromethyl)Pyridine-2-Carboxamide]: the IC50 stood at 0.057 µM.

On to `COc1cc(OC(F)(F)F)ccc1Oc1cc(OC)c(C(F)(F)F)c(C)c1C(=O)Nc1ccnc(C(N)=O)c1` [Compound 283, 4-[[4-Methoxy-6-[2-Methoxy-4-(Trifluoromethoxy)Phenoxy]-2-Methyl-3-(Trifluoromethyl)Benzoyl]Amino]Pyridine-2-Carboxamide], for which the IC50 is 0.0042 µM.

Turning to `COc1cc(OC(F)(F)F)ccc1Oc1cc(C(F)(F)F)c(OC)c(F)c1C(=O)Nc1ccnc(C(N)=O)c1` [Compound 284, 4-[[2-Fluoro-3-Methoxy-6-[2-Methoxy-4-(Trifluoromethoxy)Phenoxy]-4-(Trifluoromethyl)Benzoyl]Amino]Pyridine-2-Carboxamide], the IC50 stood at 0.004 µM.

For `Cc1cnc(C(N)=O)cc1NC(=O)c1c(Oc2ccc(OC(F)(F)F)cc2C)ccc(C(F)(F)F)c1F` [Compound 285, 4-[[2-Fluoro-6-[2-Methyl-4-(Trifluoromethoxy)Phenoxy]-3-(Trifluoromethyl)Benzoyl]Amino]-5-Methyl-Pyridine-2-Carboxamide], the IC50 was found to be 0.026 µM.

In the case of `Cc1cc(OC(F)(F)F)ccc1Oc1ccc(Cl)c(F)c1C(=O)Nc1ccnc(C(N)=O)c1` [Compound 286, 4-[[3-Chloro-2-Fluoro-6-[2-Methyl-4-(Trifluoromethoxy)Phenoxy]Benzoyl]Amino]Pyridine-2-Carboxamide], the IC50 turned out to be 0.014 µM.

Take `Cc1c(C2CC2)ccc(Oc2ccc(OC(F)(F)F)cc2Cl)c1C(=O)Nc1ccc(C(N)=O)nc1` [Compound 287, 5-[[6-[2-Chloro-4-(Trifluoromethoxy)Phenoxy]-3-Cyclopropyl-2-Methyl-Benzoyl]Amino]Pyridine-2-Carboxamide]: the IC50 turned out to be 0.59 µM.

Turning to `Cc1cnc(C(N)=O)cc1NC(=O)c1c(Oc2ccc(OC(F)(F)F)c(F)c2C)ccc(C(F)(F)F)c1C` [Compound 288, 4-[[6-[3-Fluoro-2-Methyl-4-(Trifluoromethoxy)Phenoxy]-2-Methyl-3-(Trifluoromethyl)Benzoyl]Amino]-5-Methyl-Pyridine-2-Carboxamide], the IC50 amounted to 0.0203 µM.

Turning to `Cc1c(Oc2ccc(C(F)(F)F)c(C)c2C(=O)Nc2ccnc(C(N)=O)c2)ccc(OC(F)(F)F)c1F` [Compound 290, 4-[[6-[3-Fluoro-2-Methyl-4-(Trifluoromethoxy)Phenoxy]-2-Methyl-3-(Trifluoromethyl)Benzoyl]Amino]Pyridine-2-Carboxamide], the IC50 was determined as 0.0099 µM.

For the compound `Cc1cnc(C(N)=O)cc1NC(=O)c1c(Oc2ccc(OC(F)(F)F)c(F)c2C)ccc(C(F)(F)F)c1F` [Compound 291, 4-[[2-Fluoro-6-[3-Fluoro-2-Methyl-4-(Trifluoromethoxy)Phenoxy]-3-(Trifluoromethyl)Benzoyl]Amino]-5-Methyl-Pyridine-2-Carboxamide], the IC50 was determined as 0.0128 µM.

`Cc1c(Oc2ccc(C(F)(F)F)c(F)c2C(=O)Nc2ccc(C(N)=O)nc2)ccc(OC(F)(F)F)c1F` [Compound 292, 5-[[2-Fluoro-6-[3-Fluoro-2-Methyl-4-(Trifluoromethoxy)Phenoxy]-3-(Trifluoromethyl)Benzoyl]Amino]Pyridine-2-Carboxamide]: the half-maximal inhibitory concentration (IC50) came to 0.0545 µM.

`Cc1c(Oc2ccc(C(F)(F)F)c(F)c2C(=O)Nc2ccnc(C(N)=O)c2)ccc(OC(F)(F)F)c1F` [Compound 293, 4-[[2-Fluoro-6-[3-Fluoro-2-Methyl-4-(Trifluoromethoxy)Phenoxy]-3-(Trifluoromethyl)Benzoyl]Amino]Pyridine-2-Carboxamide]: the IC50 stood at 0.0039 µM.

With `Cc1c(Oc2ccc(OC(F)(F)F)c(F)c2C(=O)Nc2ccnc(C(N)=O)c2)ccc(OC(F)(F)F)c1F` [Compound 294, 4-[[2-Fluoro-6-[3-Fluoro-2-Methyl-4-(Trifluoromethoxy)Phenoxy]-3-(Trifluoromethoxy)Benzoyl]Amino]Pyridine-2-Carboxamide], the IC50 is 0.0068 µM.

As for `Cc1c(Oc2ccc(Cl)c(F)c2C(=O)Nc2ccnc(C(N)=O)c2)ccc(OC(F)(F)F)c1F` [Compound 295, 4-[[3-Chloro-2-Fluoro-6-[3-Fluoro-2-Methyl-4-(Trifluoromethoxy)Phenoxy]Benzoyl]Amino]Pyridine-2-Carboxamide], the IC50 was 0.0065 µM.

`Cc1cnc(C(N)=O)cc1NC(=O)c1c(Oc2ccc(OC(F)(F)F)c(F)c2Cl)ccc(C(F)(F)F)c1F` [Compound 296, 4-[[6-[2-Chloro-3-Fluoro-4-(Trifluoromethoxy)Phenoxy]-2-Fluoro-3-(Trifluoromethyl)Benzoyl]Amino]-5-Methyl-Pyridine-2-Carboxamide]: the IC50 amounted to 0.0246 µM.

On to `NC(=O)c1ccc(NC(=O)c2c(Oc3ccc(OC(F)(F)F)c(F)c3Cl)ccc(C(F)(F)F)c2F)cn1` [Compound 297, 5-[[6-[2-Chloro-3-Fluoro-4-(Trifluoromethoxy)Phenoxy]-2-Fluoro-3-(Trifluoromethyl)Benzoyl]Amino]Pyridine-2-Carboxamide], for which the IC50 was 0.074 µM.

The IC50 is the concentration needed to halve the response being measured.
